The source of these data is ChEMBL document CHEMBL6109090, “Design, synthesis, and biological evaluation of novel and highly potent peptides targeting syntenin” (Eur J Med Chem, 2025).

Molecules are shown by their SMILES. Activity calls are given as the source filed them. The calls are words filed in the database; no cut-off is given here. Non-standard residues stand in square brackets, D forms with d. Residues, ends and D or L forms follow the SMILES beside them. Phg = N[C@H](C(=O)O)c1ccccc1

Data set [1] is described as follows: Binding affinity to Syntenin PDZ1 domain (unknown origin) assessed as dissociation constant by MST analysis. More on the design: species or system Homo sapiens.
Data set [2] can be described thus: Stability in mouse serum at 5 uM measured after 4 hrs by HPLC analysis. It is filed as ADME, cell-free. The settings on record: for Stability: serum, 4 h, 5 µM.
Data set [3] in a line: Antiproliferative activity against human SK-RC-20 cells assessed as inhibition of cell growth measured at 24 hrs by MTT assay. Format: functional, cell-based. The settings on record: SK-RC-20, 24 h.
The nature of data set [4]: Antiproliferative activity against human SK-RC-20 cells assessed as inhibition of cell growth measured at 48 hrs by MTT assay. Format: functional, cell-based. The conditions noted are these: SK-RC-20, 48 h. (Tetrazolium assays rely on reduction of a dye to a coloured formazan, in cell work by metabolically active cells.)
Data set [5] can be described thus: Antiproliferative activity against human SK-RC-20 cells assessed as inhibition of cell growth measured at 72 hrs by MTT assay. Format: functional, cell-based. The settings on record: SK-RC-20, 72 h.
The subject of data set [6] is SK-RC-20. Briefly: Binding affinity to immobilized Syntenin in human SK-RC-20 cells at 5 uM incubated for 2 hrs by pull down assay. Format: cell-based.
The test system of a further data set is A498. In words: Antiproliferative activity against human A498 cells assessed as inhibition of cell growth measured after 24 to 72 hrs by MTT assay. The conditions noted are these: time 24-72 hrs. Format: functional, cell-based.
In another data set the test system is UO-31. In words: Antiproliferative activity against human UO-31 cells assessed as inhibition of cell growth measured after 24 to 72 hrs by MTT assay. Format: functional, cell-based. The settings on record: time 24-72 hrs.
The next data set deals with KMRC-1. In words: Antiproliferative activity against human KMRC-1 cells assessed as inhibition of cell growth measured after 24 to 72 hrs by MTT assay. The settings on record: time 24-72 hrs. It is filed as functional, cell-based.
A further data set relates to CAKI-1. Briefly: Antiproliferative activity against human CAKI-1 cells assessed as inhibition of cell growth measured after 24 to 72 hrs by MTT assay. The settings on record: time 24-72 hrs. It is filed as functional, cell-based.
Data set [7] has as its system SK-RC-20. Briefly: Downregulation of MT1-MMP mRNA expression in human SK-RC-20 cells at 50 to 100 nM by RT-PCR analysis. It is filed as functional, cell-based. The settings on record: dose 50-100 nM.
Data set [8] relates to SK-RC-20. Briefly: Downregulation of MMP2 mRNA expression in human SK-RC-20 cells at 50 to 100 nM by RT-PCR analysis. It is filed as functional, cell-based. The settings on record: dose 50-100 nM.
For data set [9], the system named is SK-RC-20. Briefly: Antitumor activity in human SK-RC-20 cells xenografted in male BALB/c nude mouse model assessed as reduction in tumor volume at 5 to 15 mg/kg measured every three days for 15 days. Format: functional, organism-based. The conditions noted are these: dose 5-15 mg/kg, time 15.0 day. A general note: Xenograft models place foreign cells or tissue in a host animal.

The nature of data set [10]: Toxicity in male BALB/c nude mouse assessed as change in body weight at 5 to 15 mg/kg measured every three days for 15 days. The settings on record: in vivo, 360 h, dose 5-15 mg/kg, time 15 day. Format: organism-based.
Data set [11] concerns SK-RC-20. Briefly: Antitumor activity in human SK-RC-20 cells xenografted in male BALB/c nude mouse model assessed as inhibition of tumor growth at 15 mg/kg measured every three days for 15 days. Format: functional, organism-based. The settings on record: time 15.0 day.

Turning to `CC[C@H](C)[C@H](NC(=O)[C@H](CC(=O)O)NC(=O)[C@@H](NC(=O)[C@@H](NC(=O)[C@H](Cc1c[nH]c2ccccc12)NC(=O)[C@H](Cc1cnc[nH]1)NC(=O)[C@H](CO)NC(=O)[C@@H](CCCNC(=N)N)NC(=O)[C@H](CCCNC(=N)N)NC(=O)[C@@H](CCCNC(=N)N)NC(=O)[C@H](CCCNC(=N)N)NC(=O)[C@@H](CCCNC(=N)N)NC(=O)CNC(=O)[C@@H](CCCNC(=N)N)NC(=O)[C@H](CCCNC(=N)N)NC(=O)[C@@H](CCCNC(=N)N)NC(C)=O)C(C)(C)C)C1CCCCC1)C(=O)O`, the Kd in data set [1] came out at 0.3 nM. In data set [2], the Stability entry is “Unstable”. Moreover, the IC50 amounted to 22100 nM in [3], 14400 nM in data set [4] and 9710 nM in [5].
For the compound `CC[C@H](C)[C@H](NC(=O)[C@H](CC(=O)O)NC(=O)[C@@H](NC(=O)[C@@H](NC(=O)[C@H](Cc1c[nH]c2ccccc12)NC(=O)[C@H](NC(=O)[C@@H](NC(C)=O)[C@@H](C)O)C(C)C)C(C)C)c1ccccc1)C(N)=O`, in [1], the Kd was determined as 15.2 nM.
Same read-out and setting: then `CC[C@H](C)[C@H](NC(=O)[C@H](CC(=O)O)NC(=O)[C@@H](NC(=O)[C@@H](NC(=O)[C@H](Cc1c[nH]c2ccccc12)NC(=O)[C@@H](CCCCN)NC(=O)[C@H](C)NC(C)=O)C(C)C)c1ccccc1)C(N)=O`, with 9.07 nM; and `CC[C@H](C)[C@H](NC(=O)[C@@H](NC(=O)[C@@H](NC(=O)[C@@H](NC(=O)[C@H](Cc1c[nH]c2ccccc12)NC(=O)[C@@H](CCCCN)NC(=O)[C@@H](NC(C)=O)[C@@H](C)O)C(C)C)c1ccccc1)C(C)C)C(N)=O`, with 28.3 nM; and `CC[C@H](C)[C@H](NC(=O)[C@H](CC(=O)O)NC(=O)[C@H](NC(=O)[C@@H](NC(=O)[C@H](Cc1c[nH]c2ccccc12)NC(=O)[C@@H](CCCCN)NC(=O)[C@@H](NC(C)=O)[C@@H](C)O)C(C)C)C(C)C)C(N)=O`, with 19.7 nM.
On to `CC[C@H](C)[C@H](NC(=O)[C@H](CC(=O)O)NC(=O)[C@@H](NC(=O)[C@@H](NC(=O)[C@H](Cc1cnc[nH]1)NC(=O)[C@@H](CCCCN)NC(=O)[C@@H](NC(C)=O)[C@@H](C)O)C(C)C)c1ccccc1)C(N)=O`, for which the Kd in data set [1] was 34.1 nM.
For `CC[C@H](C)[C@H](NC(=O)[C@H](CC(=O)O)NC(=O)[C@@H](NC(=O)[C@@H](NC(=O)[C@H](Cc1c[nH]c2ccccc12)NC(=O)[C@H](CCCCN)NC(=O)[C@@H](NC(C)=O)[C@@H](C)O)C(C)C)c1ccccc1)C(N)=O` (Ac-TKWV[Phg]DI-NH2), in data set [1], the equilibrium dissociation constant (Kd) was 6.15 nM. Also, the result in the data set on SK-RC-20 [6], in the data set with A498, in the data set with UO-31, in the data set on KMRC-1, in the data set with CAKI-1 and with SK-RC-20 [7] was Active. Besides, the outcome in the data set with SK-RC-20 [8], in the data set on SK-RC-20 [9] and with SK-RC-20 [11] was Active. The remaining at 4 h, 5 µM in data set [2] (mouse serum, read-out: Stability) was approximately 80%. The IC50 in data set [3] worked out at 1240 nM; in data set [4], 910 nM; in [5], 560 nM. For the same compound, the Activity entry in [10] is on record as “Toxic”.
As to `CC[C@H](C)[C@H](NC(=O)[C@H](CC(=O)O)NC(=O)[C@@H](NC(=O)[C@@H](NC(=O)[C@H](Cc1c[nH]c2ccccc12)NC(=O)[C@H](Cc1cnc[nH]1)NC(=O)[C@@H](N)CO)[C@@H](C)O)[C@@H](C)CC)C(=O)O` (H-SHWTIDI-OH), the Stability entry in [2] is recorded as “Unstable”.

As a reminder, the Kd is the concentration at which binding is half-saturated. As a reminder, the IC50 is the concentration that gives 50% inhibition.
